According to ChEMBL document CHEMBL4002566, “S-substituted 3,5-dinitrophenyl 1,3,4-oxadiazole-2-thiols and tetrazole-5-thiols as highly efficient antitubercular agents” (Eur J Med Chem, 2017):
Converted amounts (≈) assume the structure as drawn.

What was measured:
[1] = system: Klebsiella pneumoniae; assay: Antibacterial activity against extended spectrum beta-lactamase producing Klebsiella pneumoniae HK14368/08 after 24 hrs by broth microdilution method; assay type: functional
[2] = system: Escherichia coli; assay: Antibacterial activity against Escherichia coli ATCC 8739 after 24 hrs by broth microdilution method; assay type: functional
[3] = system: Klebsiella pneumoniae; assay: Antibacterial activity against Klebsiella pneumoniae HK11750/08 after 24 hrs by broth microdilution method; assay type: functional
[4] = system: Pseudomonas aeruginosa; assay: Antibacterial activity against Pseudomonas aeruginosa ATCC 9027 after 24 hrs by broth microdilution method; assay type: functional
[5] = system: Candida albicans; assay: Antifungal activity against Candida albicans ATCC 44859 after 24 hrs by broth microdilution method; assay type: functional; conditions: ATCC 44859, 24 h
[6] = system: Trichophyton mentagrophytes; assay: Antifungal activity against Trichophyton mentagrophytes 445 after 72 hrs by broth microdilution method; assay type: functional; conditions: Trichophyton mentagrophytes, 445, 72 h
[7] = system: Aspergillus fumigatus; assay: Antifungal activity against Aspergillus fumigatus 231 after 24 hrs by broth microdilution method; assay type: functional; conditions: Aspergillus fumigatus, 231, 24 h
[8] = system: Candida tropicalis; assay: Antifungal activity against Candida tropicalis 156 after 24 hrs by broth microdilution method; assay type: functional; conditions: Candida tropicalis, 156, 24 h
[9] = system: Lichtheimia corymbifera; assay: Antifungal activity against Absidia corymbifera 272 after 24 hrs by broth microdilution method; assay type: functional; conditions: Lichtheimia corymbifera, 272, 24 h
[10] = system: Trichosporon asahii; assay: Antifungal activity against Trichosporon asahii 1188 after 24 hrs by broth microdilution method; assay type: functional; conditions: Trichosporon asahii, 1188, 24 h
[11] = system: Pichia kudriavzevii; assay: Antifungal activity against Candida krusei E28 after 24 hrs by broth microdilution method; assay type: functional; conditions: E28, 24 h
[12] = system: Mycobacterium avium; assay: Antimycobacterial activity against Mycobacterium avium CNCTC My 330/88 after 21 days by micromethod; assay type: functional; conditions: CNCTC My 330/88, 504 h
[13] = system: Mycobacterium kansasii; assay: Antimycobacterial activity against Mycobacterium kansasii CNCTC My 235/80 after 14 days by micromethod; assay type: functional; conditions: CNCTC My 235/80, 336 h
[14] = system: Mycobacterium tuberculosis; assay: Antimycobacterial activity against Mycobacterium tuberculosis CNCTC My 331/88 after 14 days by micromethod; assay type: functional; conditions: CNCTC My 331/88, 336 h
[15] = system: Mycobacterium tuberculosis; assay: Antimycobacterial activity against Mycobacterium tuberculosis CNCTC My 331/88 after 21 days by micromethod; assay type: functional; conditions: CNCTC My 331/88, 504 h
[16] = system: Mycobacterium kansasii; assay: Antimycobacterial activity against Mycobacterium kansasii 6509/96 clinical isolate after 21 days by micromethod; assay type: functional; conditions: 6509/96, 504 h
[17] = system: Mycobacterium kansasii; assay: Antimycobacterial activity against Mycobacterium kansasii CNCTC My 235/80 after 21 days by micromethod; assay type: functional; conditions: CNCTC My 235/80, 504 h
[18] = system: Mycobacterium kansasii; assay: Antimycobacterial activity against Mycobacterium kansasii 6509/96 clinical isolate after 7 days by micromethod; assay type: functional; conditions: 6509/96, 168 h
[19] = system: Mycobacterium kansasii; assay: Antimycobacterial activity against Mycobacterium kansasii CNCTC My 235/80 after 7 days by micromethod; assay type: functional; conditions: CNCTC My 235/80, 168 h
[20] = system: Mycobacterium avium; assay: Antimycobacterial activity against Mycobacterium avium CNCTC My 330/88 after 14 days by micromethod; assay type: functional; conditions: CNCTC My 330/88, 336 h
[21] = system: Mycobacterium kansasii; assay: Antimycobacterial activity against Mycobacterium kansasii 6509/96 clinical isolate after 14 days by micromethod; assay type: functional; conditions: 6509/96, 336 h
[22] = system: Klebsiella pneumoniae; assay: Antibacterial activity against Klebsiella pneumoniae HK11750/08 after 48 hrs by broth microdilution method; assay type: functional; conditions: HK11750/08, 48 h
[23] = Cytotoxicity against human HepG2 cells assessed as cell viability at 30 uM after 48 hrs by MTS assay relative to control; assay type: cell-based; conditions: read-out: Activity
[24] = system: Staphylococcus epidermidis; assay: Antibacterial activity against Staphylococcus epidermidis HK6996/08 after 24 hrs by broth microdilution method; assay type: functional; conditions: HK6996/08, 24 h
[25] = Cytotoxicity against MDCK cells assessed as cell viability at 30 uM after 48 hrs by MTS assay relative to control; assay type: cell-based, Canis lupus familiaris; conditions: dog, read-out: Activity
[26] = system: Staphylococcus epidermidis; assay: Antibacterial activity against Staphylococcus epidermidis HK6996/08 after 48 hrs by broth microdilution method; assay type: functional; conditions: HK6996/08, 48 h
[27] = Cytotoxicity against human A431 cells assessed as cell viability at 30 uM after 48 hrs by MTS assay relative to control; assay type: cell-based, A-431; conditions: read-out: Activity
[28] = system: A-431; assay: Cytotoxicity against human A431 cells assessed as cell viability after 48 hrs by MTS assay; assay type: cell-based; conditions: A-431, 48 h
[29] = system: Staphylococcus aureus; assay: Antibacterial activity against methicillin-resistant Staphylococcus aureus HK5996/08 after 48 hrs by broth microdilution method; assay type: functional; conditions: HK5996/08, 48 h
[30] = Selectivity index, ratio of IC50 for human HepG2 cells to MIC for Mycobacterium tuberculosis; assay type: toxicity; conditions: read-out: Selectivity Index
[31] = system: Nakaseomyces glabratus; assay: Antifungal activity against Candida glabrata 20/I after 24 hrs by broth microdilution method; assay type: functional
[32] = system: Lichtheimia corymbifera; assay: Antifungal activity against Absidia corymbifera 272 after 48 hrs by broth microdilution method; assay type: functional; conditions: Lichtheimia corymbifera, 272, 48 h
[33] = system: Pseudomonas aeruginosa; assay: Antibacterial activity against Pseudomonas aeruginosa ATCC 9027 after 48 hrs by broth microdilution method; assay type: functional; conditions: ATCC 9027, 48 h
[34] = system: Staphylococcus aureus; assay: Antibacterial activity against methicillin-resistant Staphylococcus aureus HK5996/08 after 24 hrs by broth microdilution method; assay type: functional; conditions: HK5996/08, 24 h
[35] = system: Candida tropicalis; assay: Antifungal activity against Candida tropicalis 156 after 48 hrs by broth microdilution method; assay type: functional; conditions: Candida tropicalis, 156, 48 h
[36] = system: Trichosporon asahii; assay: Antifungal activity against Trichosporon asahii 1188 after 48 hrs by broth microdilution method; assay type: functional; conditions: Trichosporon asahii, 1188, 48 h
[37] = system: Huh-7; assay: Cytotoxicity against human HuH7 cells assessed as cell viability after 48 hrs by MTS assay; assay type: cell-based; conditions: Huh-7, 48 h
[38] = system: HepG2; assay: Cytotoxicity against human HepG2 cells assessed as cell viability after 48 hrs by MTS assay; assay type: cell-based; conditions: HepG2, 48 h
[39] = system: Enterococcus sp.; assay: Antibacterial activity against Enterococcus sp. HK14365/08 after 24 hrs by broth microdilution method; assay type: functional; conditions: HK14365/08, 24 h
[40] = system: Escherichia coli; assay: Antibacterial activity against Escherichia coli ATCC 8739 after 48 hrs by broth microdilution method; assay type: functional; conditions: ATCC 8739, 48 h
[41] = system: Candida albicans; assay: Antifungal activity against Candida albicans ATCC 44859 after 48 hrs by broth microdilution method; assay type: functional; conditions: ATCC 44859, 48 h
[42] = Cytotoxicity against human HuH7 cells assessed as cell viability at 30 uM after 48 hrs by MTS assay relative to control; assay type: cell-based, Huh-7; conditions: read-out: Activity
[43] = system: Aspergillus fumigatus; assay: Antifungal activity against Aspergillus fumigatus 231 after 48 hrs by broth microdilution method; assay type: functional; conditions: Aspergillus fumigatus, 231, 48 h
[44] = system: MDCK; assay: Cytotoxicity against MDCK cells assessed as cell viability after 48 hrs by MTS assay; assay type: cell-based; conditions: Canis lupus familiaris
[45] = system: Staphylococcus aureus; assay: Antibacterial activity against Staphylococcus aureus ATCC 6538 after 24 hrs by broth microdilution method; assay type: functional; conditions: ATCC 6538, 24 h
[46] = system: Klebsiella pneumoniae; assay: Antibacterial activity against extended spectrum beta-lactamase producing Klebsiella pneumoniae HK14368/08 after 48 hrs by broth microdilution method; assay type: functional; conditions: HK14368/08, 48 h
[47] = system: Nakaseomyces glabratus; assay: Antifungal activity against Candida glabrata 20/I after 48 hrs by broth microdilution method; assay type: functional
[48] = system: Trichophyton mentagrophytes; assay: Antifungal activity against Trichophyton mentagrophytes 445 after 120 hrs by broth microdilution method; assay type: functional; conditions: Trichophyton mentagrophytes, 445, 120 h
[49] = system: Pichia kudriavzevii; assay: Antifungal activity against Candida krusei E28 after 48 hrs by broth microdilution method; assay type: functional; conditions: E28, 48 h
[50] = system: Enterococcus sp.; assay: Antibacterial activity against Enterococcus sp. HK14365/08 after 48 hrs by broth microdilution method; assay type: functional; conditions: HK14365/08, 48 h
[51] = system: Staphylococcus aureus; assay: Antibacterial activity against Staphylococcus aureus ATCC 6538 after 48 hrs by broth microdilution method; assay type: functional; conditions: ATCC 6538, 48 h

Compound GENTAMICIN has an MIC [1] of 0.26 µM, an MIC [2] of 0.26 µM and an MIC [3] of 0.26 µM. It also gave an MIC [4] of 1 µM.
With `OC(Cn1cncn1)(Cn1cncn1)c1ccc(F)cc1F` [FLUCONAZOLE] the MIC [5] was 0.82 µM (≈ 0.251 µg/mL), the MIC [6] was 105 µM (≈ 32.2 µg/mL) and the MIC [7] was > 500 µM. The MIC [8] was 1.6 µM (≈ 0.49 µg/mL), the MIC [9] was > 500 µM and the MIC [10] was 210 µM (≈ 64.3 µg/mL). The MIC [11] was 105 µM (≈ 32.2 µg/mL).
In the case of `O=[N+]([O-])c1cc(-c2nnc(SCc3ccc(Cl)c(Cl)c3)o2)cc(C(F)(F)F)c1`, the MIC [12] is reported as > 250 µM, the MIC [13] is reported as 1 µM (≈ 0.45 µg/mL) and the MIC [14] is reported as 0.5 µM (≈ 0.225 µg/mL). It also gave an MIC [15] of 0.5 µM (≈ 0.225 µg/mL), an MIC [16] of 1 µM (≈ 0.45 µg/mL) and an MIC [17] of 1 µM (≈ 0.45 µg/mL). For the same compound, the MIC [18] was 0.5 µM (≈ 0.225 µg/mL), the MIC [19] was 0.5 µM (≈ 0.225 µg/mL) and the MIC [20] was > 250 µM. For the same compound, the MIC [21] was 1 µM (≈ 0.45 µg/mL).
Compound `Nc1cc(-c2nnc(SCc3ccc(Cl)cc3)o2)cc([N+](=O)[O-])c1` has an MIC [12] of 250 µM (≈ 90.7 µg/mL), an MIC [13] of 250 µM (≈ 90.7 µg/mL) and an MIC [14] of 250 µM (≈ 90.7 µg/mL). The MIC [15] was 250 µM (≈ 90.7 µg/mL), the MIC [16] was 250 µM (≈ 90.7 µg/mL) and the MIC [17] was 250 µM (≈ 90.7 µg/mL). For the same compound, the MIC [18] was 250 µM (≈ 90.7 µg/mL), the MIC [19] was 250 µM (≈ 90.7 µg/mL) and the MIC [20] was 250 µM (≈ 90.7 µg/mL). The MIC [21] was 250 µM (≈ 90.7 µg/mL).
With `O=[N+]([O-])c1cc(-c2nnc(SCc3ccc(Cl)cc3)o2)cc([N+](=O)[O-])c1` the MIC [5] was > 125 µM, the MIC [22] was > 500 µM and the MIC [6] was > 125 µM. The MIC [7] was > 125 µM, the viability at 48 h, 30 µM [23] was 126% and the MIC [24] was > 500 µM. For the same compound, the viability at 48 h, 30 µM [25] was 110%, the MIC [8] was > 125 µM and the MIC [26] was > 500 µM. The MIC [13] was 0.06 µM (≈ 0.0236 µg/mL), the viability at 48 h, 30 µM [27] was 100% and the MIC [14] was 0.03 µM (≈ 0.0118 µg/mL). The IC50 [28] was > 30 µM, the MIC [9] was > 125 µM and the MIC [29] was > 500 µM. For the same compound, the MIC [15] was 0.06 µM (≈ 0.0236 µg/mL), the selectivity ratio [30] was > 1000 and the MIC [31] was > 125 µM. The MIC [16] was 0.03 µM (≈ 0.0118 µg/mL), the MIC [10] was > 125 µM and the MIC [32] was > 125 µM. The MIC [33] was > 500 µM, the MIC [17] was 0.125 µM (≈ 0.0491 µg/mL) and the MIC [18] was 0.03 µM (≈ 0.0118 µg/mL). The MIC [34] was > 500 µM, the MIC ([1]; HK14368/08, 24 h) was > 500 µM and the MIC [35] was > 125 µM. The MIC [19] was 0.03 µM (≈ 0.0118 µg/mL), the MIC [36] was > 125 µM and the IC50 [37] was > 30 µM. For the same compound, the IC50 [38] was > 30 µM, the MIC [39] was > 500 µM and the MIC [40] was > 500 µM. For the same compound, the MIC [41] was > 125 µM, the viability at 48 h, 30 µM [42] was 126% and the MIC [43] was > 125 µM. The MIC ([2]; ATCC 8739, 24 h) was > 500 µM, the IC50 [44] was > 30 µM and the MIC [45] was > 500 µM. The MIC ([3]; HK11750/08, 24 h) was > 500 µM, the MIC [21] was 0.03 µM (≈ 0.0118 µg/mL) and the MIC [46] was > 500 µM. The MIC [47] was > 125 µM, the MIC [48] was > 125 µM and the MIC [49] was > 125 µM. For the same compound, the MIC [50] was > 500 µM, the MIC ([4]; ATCC 9027, 24 h) was > 500 µM and the MIC [51] was > 500 µM. For the same compound, the MIC [11] was > 125 µM.
